The text below walks through data of US11174303B2, “Single-chain insulin analogues stabilized by a fourth disulfide bridge” (Case Western Reserve University, priority 2017, dated 2021).

Positions of bridges follow the written chain, without caps; N, C: chain ends. No end group written: not given here.

Data set [1] addresses A isoform of the insulin receptor (Homo sapiens, UniProt P06213). Format: binding. As to the method: The receptor binding affinity of analogue 81-04 and analogue 4SS 81-04 was also determined. The affinity of 4SS 81-04 for the A isoform of the insulin receptor was determined to be 120±20 percent relative to human insulin (and may in fact be the same as wild type human insulin given the error present; data not shown). […] Such impaired binding to IGF-1R is desirable from the perspective of potential carcinogenesis on long-term use.

The conditions of data set [2]: in vivo.
The test system of data set [3] is Sprague-Dawley rats made diabetic with streptozotocin. Description: Stability under extreme conditions (95° C. for 30 min, gentle agitation), read out as glucose lowering after IV bolus in diabetic rats. Format: in vivo, rat.
Method: Heat stressed insulin was given gentle agitation at 95° C. for 30 min. Doses for SCIs (nominally 1 IU/rat IV) were calculated in equivalent nanomoles protein/μl.
FIG. 3C is a graph of mean blood-glucose concentrations over time in Sprague-Dawley rats made diabetic with streptozotocin after IV bolus injection of fresh or heat-stressed SCIs on gentle agitation at 95° C. for 30 min (N=4; mean glycemia ca. 400 mg/dl). Symbol code: (filled triangle, ▴) fresh SCI-1; (open triangle, ? ) heated SCI-1; (filled square, ? ) fresh insulin lispro as positive control and (filled circle, ? ) Lilly diluent (i.e., buffer only) as negative control. Doses for SCIs (nominally 1 IU/rat IV) were calculated in equivalent nanomoles protein/μl.
FIG. 3D is a graph of the change in blood-glucose concentrations normalized to initial blood glucose concentration over time in Sprague-Dawley rats made diabetic with streptozotocin after IV bolus injection of fresh or heat-stressed SCIs on gentle agitation at 95° C. for 30 min (N=4; mean glycemia ca. 400 mg/dl). Symbol code: (filled triangle, ▴) fresh SCI-1; (open triangle, ? ) heated SCI-1; (filled square, ? ) fresh insulin lispro as positive control; and (filled circle, ? ) Lilly diluent (i.e., buffer only) as negative control. Doses for SCIs (nominally 1 IU/rat IV) were calculated in equivalent nanomoles protein/μl.
To evaluate the biological activity, potency, duration of signaling, and thermal stability of the analogues in an animal model, male Sprague-Dawley rats (mean body mass ˜300 grams) were rendered diabetic by treatment with streptozotocin (STZ). […] A control was provided by injection of protein-free Lilly diluent (obtained from Eli Lilly and Co.) composed of 16 mg glycerin, 1.6 mg meta-cresol, 0.65 mg phenol, and 3.8 mg sodium phosphate pH 7.4. The activity of SCI-1 was evaluated in relation to that of Humalog® (U-100 strength taken from an unexpired commercial vial). […] Blood was obtained from the clipped tip of the tail at time 0 and every 10 minutes up to 360 min. […]

Sequence of A isoform of the insulin receptor (P06213 28-746 isoform P06213-2 limits assumed): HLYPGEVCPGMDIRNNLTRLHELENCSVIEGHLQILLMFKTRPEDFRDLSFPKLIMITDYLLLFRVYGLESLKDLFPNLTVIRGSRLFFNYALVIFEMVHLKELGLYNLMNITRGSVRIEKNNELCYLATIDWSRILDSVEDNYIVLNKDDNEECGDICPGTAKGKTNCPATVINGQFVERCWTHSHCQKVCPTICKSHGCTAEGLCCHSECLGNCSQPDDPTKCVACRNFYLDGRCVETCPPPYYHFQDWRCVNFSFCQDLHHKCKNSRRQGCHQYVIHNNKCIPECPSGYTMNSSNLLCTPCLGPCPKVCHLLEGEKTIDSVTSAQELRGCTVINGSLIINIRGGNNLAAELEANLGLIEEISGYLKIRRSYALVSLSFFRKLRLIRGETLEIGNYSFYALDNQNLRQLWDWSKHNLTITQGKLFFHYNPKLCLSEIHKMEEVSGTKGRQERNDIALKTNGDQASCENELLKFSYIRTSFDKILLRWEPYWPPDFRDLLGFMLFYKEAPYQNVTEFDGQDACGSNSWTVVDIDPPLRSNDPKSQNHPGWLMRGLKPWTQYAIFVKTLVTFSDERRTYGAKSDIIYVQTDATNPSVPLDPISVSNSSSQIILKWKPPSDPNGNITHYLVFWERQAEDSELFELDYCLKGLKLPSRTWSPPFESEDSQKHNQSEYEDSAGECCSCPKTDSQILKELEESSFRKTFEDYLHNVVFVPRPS
Sequence of A isoform of the insulin receptor (P06213 763-1382 partner limits assumed): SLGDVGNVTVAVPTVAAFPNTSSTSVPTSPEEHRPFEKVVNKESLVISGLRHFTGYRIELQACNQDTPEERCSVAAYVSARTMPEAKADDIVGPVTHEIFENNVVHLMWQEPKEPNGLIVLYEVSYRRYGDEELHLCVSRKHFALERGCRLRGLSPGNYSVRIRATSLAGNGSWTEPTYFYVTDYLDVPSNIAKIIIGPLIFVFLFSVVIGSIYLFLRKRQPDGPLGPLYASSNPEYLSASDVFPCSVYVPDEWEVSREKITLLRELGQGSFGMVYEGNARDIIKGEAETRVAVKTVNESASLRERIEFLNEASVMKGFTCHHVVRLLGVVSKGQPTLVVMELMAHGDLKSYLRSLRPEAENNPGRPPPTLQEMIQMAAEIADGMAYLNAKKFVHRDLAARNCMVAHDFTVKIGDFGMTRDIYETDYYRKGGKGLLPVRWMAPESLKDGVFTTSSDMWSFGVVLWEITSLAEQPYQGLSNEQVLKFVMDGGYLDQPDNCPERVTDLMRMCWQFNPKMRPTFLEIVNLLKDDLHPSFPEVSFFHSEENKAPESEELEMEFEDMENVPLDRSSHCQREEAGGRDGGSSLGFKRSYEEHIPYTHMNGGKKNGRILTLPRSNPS

With “FVNCHLCGSHLVEALYLVCGERGFFYTDPTEEGPRRGIVEQCCHSCCSLEQLENYCN (disulfide 4-46, 7-43, 19-56, 42-47) [SCI-2]”, the “affinity for the A isoform of the insulin receptor relative to human insulin” value in data set [1] was determined as 120±20%.
Regarding “FVNCHLCGSHLVEALYLVCGERGFFYTPRTEEGSRRSRGIVEQCCRSCCSLYQLENYCN (disulfide 4-48, 7-45, 19-58, 44-49) [SCI-1]”, in data set [2], the “PK on conventional SQ injection” value is listed as “prolonged PK”.
Consider “SCI-1 without 4SS: Preliminary version of SCI-1 lacking the 4th disulfide bridge, with Gln at position B4 and Ile at position A10 (FVNQHLCGSHLVEALYLVCGERGFFYTDPTEEGPRRGIVEQCCHSICSLEQLENYCN; disulfide (positions not given here); ends not checked)”, for which the “decrement in activity of heated versus fresh sample at 240 min” value in data set [3] (95° C. for 30 min, time point 240 min) was “ca. 25%”. In addition, the “decrement in activity of heated versus fresh sample at 300 min” value in data set [3] (95° C. for 30 min, time point 300 min) is recorded as around 40%. For the same substance, in data set [3] (heat-stressed with gentle agitation at 95° C. for 30 min, nominally 1 IU/rat, N=4), the “activity after 30 min at 95° C. versus fresh sample” value is reported as “largely (but incompletely) maintained”.
